Like-named read-outs stand apart in the source and are kept apart here.
Assays:
Assay type in all cases: cell-based
[1] = test system: 786-0; assay: NCI-60 cytotoxicity screen; details: Homo sapiens; 786–0; five-dose; read-out: LC50 (the source's name)
[2] = test system: SK-MEL-2; assay: NCI-60 cytotoxicity screen
[3] = test system: KM12; assay: NCI-60 cytotoxicity screen
[4] = test system: SK-OV-3; assay: JFCR-39 cytotoxicity screen
[5] = test system: BSY-1; assay: JFCR-39 cytotoxicity screen
[6] = test system: NCI-H226; assay: NCI-60 cytotoxicity screen
[7] = test system: MDA-MB-231/ATCC; assay: NCI-60 cytotoxicity screen
[8] = test system: DMS273; assay: JFCR-39 cytotoxicity screen
[9] = test system: DU-145; assay: NCI-60 cytotoxicity screen
[10] = test system: RXF 393; assay: NCI-60 cytotoxicity screen
[11] = test system: OVCAR-4; assay: JFCR-39 cytotoxicity screen
[12] = test system: MCF7; assay: NCI-60 cytotoxicity screen
[13] = test system: SF-295; assay: JFCR-39 cytotoxicity screen
[14] = test system: LOX IMVI; assay: NCI-60 cytotoxicity screen
[15] = test system: NCI-H460; assay: NCI-60 cytotoxicity screen
[16] = Homo sapiens, Fig 7, read-out: mean log10 of the GI50 values (converted)
[17] = Homo sapiens, five-dose, read-out: GI50
[18] = Homo sapiens, five-dose, read-out: LC50 (the source's name)
[19] = Homo sapiens, read-out: LC50 (the source's name)

Structure (SMILES): O=C1c2ccccc2C(=O)c2c1ccc1nsnc21 [NSC745885, anthra[1,2-c][1,2,5]thiadiazole-6,11-dione]
- CC50 [1]: 50.4 µM
- GI50 [2, 16]: 2 µM
- GI50 [2, 17]: 1.68 µM
- CC50 [2, 18]: 22.5 µM
- TGI ([2]; five-dose): 4.22 µM
- GI50 [3, 16]: 4.68 µM
- GI50 [3, 17]: 1.96 µM
- CC50 [3, 18]: 59.7 µM
- TGI ([3]; five-dose): 5.54 µM
- TGI [4]: 8.3 µM
- GI50 ([4]; Homo sapiens): 2.7 µM
- CC50 [4, 19]: 29 µM
- TGI [5]: 2.8 µM
- GI50 ([5]; Homo sapiens): 1.4 µM
- CC50 [5, 19]: 5.6 µM
- GI50 [6, 16]: 8.32 µM
- LC50 (concentration killing 50% of cells) ([6]; Homo sapiens, five-dose): 63.7 µM
- GI50 [6, 17]: 4.48 µM
- TGI ([6]; five-dose): 21.6 µM
- GI50 [7, 16]: 2.14 µM
- GI50 [7, 17]: 1.75 µM
- CC50 [7, 18]: > 100 µM
- TGI ([7]; five-dose): 5.90 µM
- TGI [8]: 3.8 µM
- GI50 ([8]; Homo sapiens, DMS-273): 2 µM
- CC50 ([8]; Homo sapiens, DMS-273, read-out: LC50 (the source's name)): 7 µM
- GI50 [9, 16]: 3.55 µM
- GI50 [9, 17]: 1.67 µM
- CC50 [9, 18]: 6.27 µM
- TGI ([9]; five-dose): 3.24 µM
- GI50 ([10]; Homo sapiens, RXF393, Fig 7, read-out: mean log10 of the GI50 values (converted)): 1.74 µM
- GI50 [10, 17]: 1.75 µM
- CC50 [10, 18]: 14.6 µM
- TGI ([10]; five-dose): 4.40 µM
- TGI [11]: 2.9 µM
- GI50 ([11]; Homo sapiens): 1.5 µM
- CC50 [11, 19]: 5.5 µM
- GI50 [12, 16]: 1.38 µM
- GI50 [12, 17]: 1.53 µM
- CC50 [12, 18]: 7.29 µM
- TGI ([12]; five-dose): 3.34 µM
- TGI [13]: 3.3 µM
- GI50 ([13]; Homo sapiens): 1.8 µM
- CC50 [13, 19]: 5.9 µM
- GI50 ([14]; Homo sapiens, LOXIMVI, Fig 7, read-out: mean log10 of the GI50 values (converted)): 0.912 µM
- GI50 [14, 17]: 0.82 µM
- CC50 [14, 18]: 4.86 µM
- TGI ([14]; five-dose): 2.13 µM
- GI50 ([15]; Homo sapiens, NCI-460, five-dose, read-out: GI50): 3.27 µM
- CC50 ([15]; Homo sapiens, NCI-460, five-dose, read-out: LC50 (the source's name)): 47.3 µM
- GI50 ([15]; Homo sapiens, NCI-H460, Fig 7, read-out: mean log10 of the GI50 values (converted)): 2.45 µM
- TGI ([15]; NCI-460, five-dose): 14.3 µM

Reference: publication PMC4839570, “Novel Anthra[1,2-c][1,2,5]Thiadiazole-6,11-Diones as Promising Anticancer Lead Compounds: Biological Evaluation, Characterization & Molecular Targets Determination” (PLoS ONE, 2016)
